Results published in ChEMBL document CHEMBL3232739, “Discovery of a potent and dissociated non-steroidal glucocorticoid receptor agonist containing an alkyl carbinol pharmacophore” (Bioorg Med Chem Lett, 2014).

Tests used:
Homo sapiens = organism: Homo sapiens; test: Selectivity ratio of IC50 for progesterone receptor (unknown origin) to IC50 for glucocorticoid receptor (unknown origin)
[1] = Volume of distribution at steady state in Sprague-Dawley rat at 2 mg/kg, iv; format: ADME, organism-based; parameters: dose 2 mg/kg, route intravenous; details: in vivo, read-out: Vdss
Mus musculus [2] = test: Toxicity in B10.RIII mouse assessed as insulin level in serum at 100 mg/kg, po qd for 5 weeks relative to control; format: organism-based; parameters: dose 100 mg/kg, route oral; details: in vivo, 840 h
[3] = Clearance in Sprague-Dawley rat at 2 mg/kg, iv; format: ADME, organism-based; parameters: dose 2 mg/kg, route intravenous; details: in vivo
[4] = target: T1, Mineralocorticoid receptor (Homo sapiens, UniProt P08235); test: Displacement of TAMRA-labeled dexamethasone from mineralocorticoid receptor (unknown origin) by fluorescence polarization assay
T1 sequence (P08235 whole entry): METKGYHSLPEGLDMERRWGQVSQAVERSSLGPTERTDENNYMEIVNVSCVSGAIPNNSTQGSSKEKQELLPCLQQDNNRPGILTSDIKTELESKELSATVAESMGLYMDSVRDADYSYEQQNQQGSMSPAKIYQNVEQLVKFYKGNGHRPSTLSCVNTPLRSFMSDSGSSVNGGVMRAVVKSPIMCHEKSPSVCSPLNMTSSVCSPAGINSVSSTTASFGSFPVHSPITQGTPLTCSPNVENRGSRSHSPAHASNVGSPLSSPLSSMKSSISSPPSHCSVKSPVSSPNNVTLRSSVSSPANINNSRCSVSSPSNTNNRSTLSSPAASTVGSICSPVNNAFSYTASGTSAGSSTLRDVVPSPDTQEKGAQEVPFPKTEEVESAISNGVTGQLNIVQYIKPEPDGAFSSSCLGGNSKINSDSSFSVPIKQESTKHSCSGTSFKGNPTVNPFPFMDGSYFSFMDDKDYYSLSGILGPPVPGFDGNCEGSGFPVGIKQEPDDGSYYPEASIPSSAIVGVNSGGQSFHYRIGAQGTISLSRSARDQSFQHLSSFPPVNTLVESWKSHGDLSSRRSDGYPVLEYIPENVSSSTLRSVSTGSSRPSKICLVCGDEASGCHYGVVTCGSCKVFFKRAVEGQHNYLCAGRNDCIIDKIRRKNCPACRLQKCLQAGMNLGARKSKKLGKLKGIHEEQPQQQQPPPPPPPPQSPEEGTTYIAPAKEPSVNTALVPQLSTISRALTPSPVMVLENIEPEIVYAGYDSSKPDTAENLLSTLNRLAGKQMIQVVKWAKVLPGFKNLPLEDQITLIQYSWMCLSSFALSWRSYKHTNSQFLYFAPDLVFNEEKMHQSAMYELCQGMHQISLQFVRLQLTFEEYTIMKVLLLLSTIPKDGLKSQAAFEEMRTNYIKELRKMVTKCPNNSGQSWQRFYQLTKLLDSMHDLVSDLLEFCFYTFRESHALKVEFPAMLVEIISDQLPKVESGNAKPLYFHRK

[5] = Permeability across basolateral to apical side in human Caco2 cells; format: ADME, cell-based; details: Caco-2, read-out: permeability
Mus musculus [6] = test: Toxicity in B10.RIII mouse assessed as triglyceride level in serum at 100 mg/kg, po qd for 5 weeks relative to control; format: organism-based; parameters: dose 100 mg/kg, route oral; details: in vivo, 840 h
Mus musculus [7] = test: Toxicity in B10.RIII mouse assessed as body fate level in serum at 100 mg/kg, po qd for 5 weeks relative to control; format: organism-based; parameters: dose 100 mg/kg, route oral; details: in vivo, 840 h
Glucocorticoid receptor = target: T2, Glucocorticoid receptor (Homo sapiens, UniProt P04150)
T2 sequence (P04150 whole entry): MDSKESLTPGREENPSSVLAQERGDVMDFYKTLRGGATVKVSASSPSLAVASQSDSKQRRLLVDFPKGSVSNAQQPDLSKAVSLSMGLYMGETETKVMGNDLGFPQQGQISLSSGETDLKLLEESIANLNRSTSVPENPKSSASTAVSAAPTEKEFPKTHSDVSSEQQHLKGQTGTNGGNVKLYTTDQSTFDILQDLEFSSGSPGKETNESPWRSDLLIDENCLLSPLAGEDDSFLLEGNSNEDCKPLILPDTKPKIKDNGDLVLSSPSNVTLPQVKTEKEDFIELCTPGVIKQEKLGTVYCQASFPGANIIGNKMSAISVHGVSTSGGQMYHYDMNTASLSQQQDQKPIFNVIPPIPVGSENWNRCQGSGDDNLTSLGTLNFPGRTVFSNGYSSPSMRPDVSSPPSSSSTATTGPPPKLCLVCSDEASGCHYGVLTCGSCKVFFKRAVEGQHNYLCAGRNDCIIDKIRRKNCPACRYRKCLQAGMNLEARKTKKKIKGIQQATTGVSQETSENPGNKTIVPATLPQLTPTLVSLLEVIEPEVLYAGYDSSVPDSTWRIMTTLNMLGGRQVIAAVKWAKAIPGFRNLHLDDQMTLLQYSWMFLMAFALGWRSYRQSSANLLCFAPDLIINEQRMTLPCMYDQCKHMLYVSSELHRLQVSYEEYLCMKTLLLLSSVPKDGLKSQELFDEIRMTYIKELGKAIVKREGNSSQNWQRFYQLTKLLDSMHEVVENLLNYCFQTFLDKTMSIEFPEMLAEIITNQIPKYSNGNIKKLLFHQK
Description: Transactivation of glucocorticoid receptor in human HeLa cells harboring MMTV promoter by luciferase reporter gene assay

Mus musculus [8] = test: Toxicity in B10.RIII mouse assessed as triglyceride level in serum at 30 mg/kg, po qd for 5 weeks relative to control; format: organism-based; parameters: dose 30 mg/kg, route oral; details: in vivo, 840 h
[9] = Oral bioavailability in Sprague-Dawley rat at 30 mg/kg; format: ADME, organism-based; details: in vivo

Ratio IC50 (Homo sapiens): > 100 | Vd [1]: 4 L/kg | clearance [3]: 48 mL/min/kg | IC50 [4]: 420 nM | Papp B→A [5]: 16.9 ×10⁻⁶ cm/s | IC50 (Glucocorticoid receptor): > 2000 nM | bioavailability [9]: 64%
Compound: Cc1ccc(F)cc1C(C)(C)C[C@@](O)(Cc1cc2cnccc2[nH]1)C(C)(C)C
Activity (Mus musculus [2]): 224% | Activity (Mus musculus [6]): 113% | Activity (Mus musculus [7]): -3% | Activity (Mus musculus [8]): 29%
